22 molecules from article PMC8460821, “Bio-oriented synthesis of new sulphadiazine derivatives for urease inhibition and their pharmacokinetic analysis” (Scientific Reports, 2021) can be followed below.

Structures are written as SMILES. Where two headings read alike, the source gives them in different places.

The target in one data set is Jack bean urease (Canavalia ensiformis, UniProt P07374). Description: biochemical. The procedure: All the synthesized derivatives were subjected to anti-urease activity. In preliminary screening, all compounds were evaluated at 1 mM concentrations, and percentage inhibition was used as an indicator of activity. IC50 values were calculated for the scaffolds having percentage inhibition higher than 50%.
Sequence of Jack bean urease (P07374 whole entry, looked up): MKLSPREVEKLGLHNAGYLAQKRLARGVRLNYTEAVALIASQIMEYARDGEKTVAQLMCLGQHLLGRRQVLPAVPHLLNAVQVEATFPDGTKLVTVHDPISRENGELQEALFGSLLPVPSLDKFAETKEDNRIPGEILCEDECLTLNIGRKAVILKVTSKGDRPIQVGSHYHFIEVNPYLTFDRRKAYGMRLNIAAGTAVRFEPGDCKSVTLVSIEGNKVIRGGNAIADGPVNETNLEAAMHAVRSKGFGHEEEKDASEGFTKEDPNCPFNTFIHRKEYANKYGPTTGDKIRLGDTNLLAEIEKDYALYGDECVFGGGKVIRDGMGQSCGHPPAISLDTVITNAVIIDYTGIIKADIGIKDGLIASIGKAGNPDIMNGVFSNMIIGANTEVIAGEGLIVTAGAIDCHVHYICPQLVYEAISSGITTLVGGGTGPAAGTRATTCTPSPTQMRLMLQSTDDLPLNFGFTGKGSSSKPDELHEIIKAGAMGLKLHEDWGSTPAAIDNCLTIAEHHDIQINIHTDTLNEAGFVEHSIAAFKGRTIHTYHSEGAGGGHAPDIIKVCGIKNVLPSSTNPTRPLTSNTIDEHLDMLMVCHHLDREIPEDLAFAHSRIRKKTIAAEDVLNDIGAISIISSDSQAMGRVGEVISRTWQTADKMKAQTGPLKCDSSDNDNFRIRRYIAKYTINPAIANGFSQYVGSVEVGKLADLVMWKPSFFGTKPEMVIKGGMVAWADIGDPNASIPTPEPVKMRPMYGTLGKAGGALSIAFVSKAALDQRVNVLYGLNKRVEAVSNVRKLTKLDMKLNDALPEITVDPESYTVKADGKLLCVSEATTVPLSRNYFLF
Indophenol method was used to perform the urease inhibition. 10 µL of enzyme, 40 µL buffer, 10 µL of assay moiety, 40-µL each of phenol-reagents, and alkali reagent were present in the assay mixture. Firstly, incubation of assay compounds and enzyme was done in assay buffer at 37 °C for 30 min. Then, alkaline reagents and 40 µL of phenol were mixed to quench the mixture. 96 well plates were used in enzyme assay and for reading of absorbance at 625 nm a microplate reader was helpful. The experiment was done in triplicate and PRISM 4.0 was used to get IC50, positive control was thiourea.

`O=S(=O)(Nc1ncccn1)c1ccc(N=Cc2ccc(F)cc2O)cc1` [3j, 4-(4-Fluoro-2-hydroxybenzylideneamino)-N-(pyrimidin-2-yl)benzenesulfonamide] gave a melting point of 279 to 281 °C. On Jack bean urease, this molecule displayed a half-inhibitory concentration (IC50) of 19 ± 1.23 µM. `COc1ccc(C=Nc2ccc(S(=O)(=O)Nc3ncccn3)cc2)cc1` [3h, 4-(4-Methoxybenzylideneamino)-N-(pyrimidin-2-yl)benzenesulfonamide] showed a melting point of 287 to 289 °C. Besides, half-maximal inhibition against Jack bean urease (IC50) required 45.6 ± 0.56 µM. In the same order, the values of `O=S(=O)(Nc1ncccn1)c1ccc(N=Cc2ccc(F)cc2F)cc1` [3r, 4-(2,4-Difluorobenzylideneamino)-N-(pyrimidin-2-yl)benzenesulfonamide] are 279 to 281 °C and 13.1 ± 2.55 µM.

In the case of `O=S(=O)(Nc1ncccn1)c1ccc(N=Cc2ccc(O)cc2)cc1` [3t, 4-(4-Hydroxybenzylideneamino)-N-(pyrimidin-2-yl)benzenesulfonamide], the melting point lay in the range of 271 to 273 °C. This molecule gave an IC50 at Jack bean urease of 8.9 ± 2.45 µM. Take `O=S(=O)(Nc1ncccn1)c1ccc(N=Cc2ccccc2O)cc1` [3b, 4-(2-Hydroxybenzylideneamino)-N-(pyrimidin-2-yl)benzenesulfonamide]: the half-maximal inhibitory concentration (IC50) against Jack bean urease amounted to 3.29 ± 2 µM.

Molecule `O=S(=O)(Nc1ncccn1)c1ccc(N=Cc2ccc(Br)cc2F)cc1` [3n, 4-(4-Bromo-2-fluorobenzylideneamino)-N-(pyrimidin-2-yl)benzenesulfonamide] came in with a melting point of 291 to 293 °C. Moreover, inhibition on Jack bean urease was half-maximal at 18.2 ± 1.78 µM (IC50). In the same order, the values of `O=S(=O)(Nc1ncccn1)c1ccc(N=Cc2ccc(F)cc2)cc1` [3g, 4-(4-Fluorobenzylideneamino)-N-(pyrimidin-2-yl)benzenesulfonamide] are 283 to 285 °C and 10.1 ± 0.45 µM. For the molecule `NC(N)=S` [thiourea, reference compound], the 50% inhibitory concentration (IC50) on Jack bean urease (incubation 37 °C 30 min, absorbance 625 nm, triplicate, positive control thiourea, read-out: IC50 urease inhibition) turned out to be 20 ± 2.06 µM. Take `O=S(=O)(Nc1ncccn1)c1ccc(N=Cc2cc(Br)ccc2O)cc1` [3c, 4-(5-Bromo-2-hydroxybenzylideneamino)-N-(pyrimidin-2-yl)benzenesulfonamide]: the IC50 urease inhibition entry on Jack bean urease (incubation 37 °C 30 min, absorbance 625 nm, triplicate, positive control thiourea) is on record as “inactivation of the compound”.

In the case of `O=S(=O)(Nc1ncccn1)c1ccc(N=Cc2ccccc2)cc1` [3a, 4-(Benzylideneamino)-N-(pyrimidin-2-yl)benzenesulfonamide], the melting point lay in the range of 269 to 271 °C. Also, at Jack bean urease, 2.32 ± 0.54 µM corresponded to half-maximal inhibition (IC50). For the molecule `O=S(=O)(Nc1ncccn1)c1ccc(N=Cc2ccc(Cl)cc2O)cc1` [3i, 4-(4-Chloro-2-hydroxybenzylideneamino)-N-(pyrimidin-2-yl)benzenesulfonamide], the melting point was in the range of 285 to 287 °C. At Jack bean urease, the half-inhibitory concentration (IC50) amounted to 25.56 ± 0.22 µM.

Turning to `O=S(=O)(Nc1ncccn1)c1ccc(N=Cc2ccc(F)cc2Cl)cc1` [3m, 4-(2-Chloro-4-fluorobenzylideneamino)-N-(pyrimidin-2-yl)benzenesulfonamide], the melting point was 277 to 279 °C. Moreover, on Jack bean urease, the IC50 came out at 15.7 ± 2.45 µM.

Molecule `O=S(=O)(Nc1ncccn1)c1ccc(N=Cc2ccc(F)cc2Br)cc1` [3l, 4-(2-Bromo-4-fluorobenzylideneamino)-N-(pyrimidin-2-yl)benzenesulfonamide] showed a melting point of 285 to 287 °C. In addition, the IC50 against Jack bean urease was 2.21 ± 0.45 µM. In addition, the “Potency relative to standard thiourea” value at Jack bean urease (ratio of urease IC50 values) is 10 times.

In turn, `O=S(=O)(Nc1ncccn1)c1ccc(N=Cc2ccc(Cl)cc2Br)cc1` [3o, 4-(2-Bromo-4-chlorobenzylideneamino)-N-(pyrimidin-2-yl)benzenesulfonamide] came in with a melting point of 277 to 279 °C. In addition, on Jack bean urease, half-maximal inhibition (IC50) was put at 5.04 ± 0.4 µM.

Take `O=[N+]([O-])c1ccc(C=Nc2ccc(S(=O)(=O)Nc3ncccn3)cc2)cc1` [3e, 4-(4-Nitrobenzylideneamino)-N-(pyrimidin-2-yl)benzenesulfonamide]: the melting point was 274 to 276 °C. 4.15 ± 0.77 µM corresponded to half-maximal inhibition against Jack bean urease (IC50).

With `O=S(=O)(Nc1ncccn1)c1ccc(N=Cc2ccc(Br)cc2Br)cc1` [3s, 4-(2,4-Dibromobenzylideneamino)-N-(pyrimidin-2-yl)benzenesulfonamide], the melting point lay in the range of 273 to 275 °C. For the same molecule, the IC50 against Jack bean urease was found to be 6.09 ± 0.45 µM. In turn, `O=S(=O)(Nc1ncccn1)c1ccc(N=Cc2ccc(Cl)cc2F)cc1` [3p, 4-(4-Chloro-2-fluorobenzylideneamino)-N-(pyrimidin-2-yl)benzenesulfonamide] registered a melting point of 275 to 277 °C. At Jack bean urease, this molecule showed an IC50 of 17.07 ± 0.02 µM. In the same order, the values of `CN(C)c1ccc(C=Nc2ccc(S(=O)(=O)Nc3ncccn3)cc2)cc1` [3f, 4-(4-(Dimethylamino)benzylideneamino)-N-(pyrimidin-2-yl)benzenesulfonamide] are 275 to 277 °C and 13.14 ± 0.02 µM. `O=S(=O)(Nc1ncccn1)c1ccc(N=Cc2ccc(O)cc2O)cc1` [3k, 4-(2,4-Dihydroxybenzylideneamino)-N-(pyrimidin-2-yl)benzenesulfonamide] gave a melting point of 280 to 282 °C. This molecule also returned a half-maximal inhibitory concentration (IC50) at Jack bean urease of 12.1 ± 2.43 µM. As to `Cc1ccc(C=Nc2ccc(S(=O)(=O)Nc3ncccn3)cc2)c(O)c1` [3u, 4-(2-Hydroxy-4-methylbenzylideneamino)-N-(pyrimidin-2-yl)benzenesulfonamide], the melting point lay in the range of 279 to 281 °C. On the same count and under the same terms, then `COc1ccc(C=Nc2ccc(S(=O)(=O)Nc3ncccn3)cc2)c(O)c1` [3d, 4-(2-Hydroxy-4-methoxybenzylideneamino)-N-(pyrimidin-2-yl)benzenesulfonamide], with 266 to 267 °C. In turn, `O=S(=O)(Nc1ncccn1)c1ccc(N=Cc2ccc(Cl)cc2Cl)cc1` [3q, 4-(2,4-Dichlorobenzylideneamino)-N-(pyrimidin-2-yl)benzenesulfonamide] gave a melting point of 291 to 293 °C. The molecule also had an IC50 on Jack bean urease of 4.05 ± 1.1 µM.

For orientation: IC50 means the concentration needed to halve the response being measured. By melting point is commonly meant the temperature, or range, at which the solid turns liquid.
